Experimental data as given in US20080199503A1, “Pharmaceutical Compositions Preparation of Peptides, Secreted by the Snake Venom Glands, Particularly of Bothrops Jararaca, Vasopeptidases Inhibitors, Evasins, Their Analogues, Derivatives and Products Associated, Thereof, for Development of Applications and Use in Chronic-Degenerative Diseases” (priority 2002, published 2008).
Like-named read-outs stand apart in the source and are kept apart here. Square brackets hold non-standard residues; d marks the D form. Peptide text beside a SMILES is read from it. pGlu = O=C1CC[C@@H](C(=O)O)N1

How the values were obtained:
[1] = in vivo; cited from earlier work
[2] = tested on: SHR and TGR(mREN2)L27 hypertensive rats blood pressure; experiment: Infusion of Evasin 5a in awake hypertensive rats of different strain; assay type: in vivo, rat; conditions: for decrease of the MAP: infusion 900 μg/100 g corporal weight/hour
Text: (§1) One day before the assay, the animals were subjected to a surgery for cannulation of the femoral artery and vein. The rats were anesthetized with ether and placed in dorsal decubitus on a surgical board. A small skin incision was made, thus separating the musculature for locating the femoral vasculonervous bunch. […] After insertion, the cannulas were tied to the bunch using a surgical line. Next, the cannulas were directed subcutaneously with the aid of a trocater to the scapular waist where they were exteriorized and secured using a suture line.
(§2) The blood pressure and the heart rate were recorded one day after the femoral artery and vein cannulation. The assay was conducted with non-anesthetized animals with free movement. The animals pulsed arterial pressure (PAP), the mean arterial pressure (MAP) and heart rate (HR) were monitored by a computer, using a data acquisition system (BIOPAC). The data were collected during all the experiments.
Before the drug administration, the rats PBP, MBP and HR were monitored during 60 minutes. During and after the infusion of the Evasin 5a, 900 μg/100 g corporal weight/hour in NaCl solution 0.9% (n=6), the cardiovascular parameters were registered. The administration of the evasin-5a in both strains produced the same decreased of the MAP 28±2.7 mmHg and 34±0.9 mmHg in the SHR and TGR (mREN2) L27 respectively. However, it was observed that the relevant difference in time duration effect after the infusion interruption was over 6 hours in the SHR and only 1 hour in the TGRs. These differences indicate important variations of the biochemical mechanisms of the Evasins 5a action with different degree for the renin angiotensin system activation.

[3] = tested on: anesthetized normotensive rats (WKY) blood pressure; experiment: Potentiation of the bradykinin hypotensive effect on anesthetized rat blood pressure; assay type: in vivo; conditions: for Bk potentiation(%): hypotension increase of a single bradykinin dose after 200 nmol of potentiator i.v., anesthetized rats; for Duration time: time to reduce the potentiating effect by 50%, 200 nmol/rat i.v., unit not given, minutes
Protocol: The potentiating activity of the bradykinin hypotensive effect was tested in anesthetized rats. Normotensive male rats (WKY) were anesthetized using pentobarbital sodium (Hypnol® Cristália, 50 mg/kg, intraperitoneal) and placed on a controlled-temperature board for maintaining the body temperature between 36.5° C. and 37° C. A polygraph coupled to a physiological transducer was used. The blood pressure ranging values were obtained by integrating the areas limited by the baseline pressure and comparing them to the values obtained from control assays. In in vivo assays, the potentiating activity of Evasins on the hypotensive effect of bradykinin on anesthetized rat blood pressure was observed. Two parameters were determined for comparison of the potentiating effects of bradykinin on the anesthetized rat blood pressure (n=5):
1) Intensity of the potentiating effect of the hypotensive activity of bradykinin on the anesthetized rats blood pressure: This value was defined as the hypotension percentage (%) increase caused by a single dose of bradykinin obtained after the infusion of 200 nmol of potentiator. 2) Potentiating effect length: Time required to reduce the potentiating effect on a single dose of bradykinin by 50%.

[4] = tested on: non anesthetized hypertensive rat blood pressure; experiment: Blood pressure of non anesthetized hypertensive rat, i.v. bolus of Evasin; assay type: in vivo; conditions: 70 nmol/100 g of body weight, non-anesthetized hypertensive rats
Text: as §1, with “suture line. The arterial cannula was used for recording the cardiovascular parameters and the venous cannula for administering the drugs.” for “suture line.”
as §2, with “The rats” for “The animals”
Before the drug administration, the rats PBP, MBP and HR were monitored. After the bolus injection of Evasin in a total volume of 0.2 mL (NaCl 0.9% solution), the resulting hypotensive effect and the effect length were monitored. In this assay, standard doses of each peptide (70 nmol/100 g of body weight) were tested (n=4). […] Evasin-5a and the Evasin-7a produced a maximum MBP reduction of −19.17±4.36 mmHg and 13.00±2.78 mmHg respectively.

[5] = target: C-terminal catalytic site of the Angiotensin I converting enzyme (recombinant ACE) (Homo sapiens, UniProt P12821); experiment: Inhibition of the C-terminal catalytic site of recombinant ACE (fluorogenic substrate); assay type: biochemical
Sequence of C-terminal catalytic site of the Angiotensin I converting enzyme (recombinant ACE) (P12821 643-1222 limits assumed, species assumed): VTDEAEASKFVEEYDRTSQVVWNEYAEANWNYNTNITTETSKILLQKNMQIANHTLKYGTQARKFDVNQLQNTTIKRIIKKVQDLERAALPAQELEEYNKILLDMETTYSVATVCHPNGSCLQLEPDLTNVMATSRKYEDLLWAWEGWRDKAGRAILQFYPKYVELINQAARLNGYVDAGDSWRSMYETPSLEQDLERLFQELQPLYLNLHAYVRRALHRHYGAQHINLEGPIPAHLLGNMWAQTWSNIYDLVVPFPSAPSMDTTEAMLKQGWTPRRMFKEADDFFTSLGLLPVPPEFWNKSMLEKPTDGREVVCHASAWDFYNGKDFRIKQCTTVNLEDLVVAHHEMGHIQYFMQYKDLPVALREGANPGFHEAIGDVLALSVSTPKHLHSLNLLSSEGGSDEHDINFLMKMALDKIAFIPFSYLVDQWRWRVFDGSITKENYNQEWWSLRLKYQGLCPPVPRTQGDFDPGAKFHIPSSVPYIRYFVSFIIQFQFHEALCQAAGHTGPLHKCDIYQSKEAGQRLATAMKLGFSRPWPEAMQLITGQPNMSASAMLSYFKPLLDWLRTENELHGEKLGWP
Protocol: (§3) The fractions from purification were submitted to mass spectrometry analysis to conforming the Evasins molar mass after purification. • The enzyme assays for the recombinant ACE inhibition were conducted using the substrate Mca-Ala-Ser-Asp-Lys-DpaOH, at 25° C., in a 50 mM Hepes buffer (pH 6.8), 200 mM NaCl and […] ZnCl2.

[6] = target: N-terminal catalytic site of the Angiotensin I converting enzyme (recombinant ACE) (Homo sapiens, UniProt P12821); experiment: Inhibition of the N-terminal catalytic site of recombinant ACE (fluorogenic substrate); assay type: biochemical
Sequence of N-terminal catalytic site of the Angiotensin I converting enzyme (recombinant ACE) (P12821 40-624 limits assumed, species assumed): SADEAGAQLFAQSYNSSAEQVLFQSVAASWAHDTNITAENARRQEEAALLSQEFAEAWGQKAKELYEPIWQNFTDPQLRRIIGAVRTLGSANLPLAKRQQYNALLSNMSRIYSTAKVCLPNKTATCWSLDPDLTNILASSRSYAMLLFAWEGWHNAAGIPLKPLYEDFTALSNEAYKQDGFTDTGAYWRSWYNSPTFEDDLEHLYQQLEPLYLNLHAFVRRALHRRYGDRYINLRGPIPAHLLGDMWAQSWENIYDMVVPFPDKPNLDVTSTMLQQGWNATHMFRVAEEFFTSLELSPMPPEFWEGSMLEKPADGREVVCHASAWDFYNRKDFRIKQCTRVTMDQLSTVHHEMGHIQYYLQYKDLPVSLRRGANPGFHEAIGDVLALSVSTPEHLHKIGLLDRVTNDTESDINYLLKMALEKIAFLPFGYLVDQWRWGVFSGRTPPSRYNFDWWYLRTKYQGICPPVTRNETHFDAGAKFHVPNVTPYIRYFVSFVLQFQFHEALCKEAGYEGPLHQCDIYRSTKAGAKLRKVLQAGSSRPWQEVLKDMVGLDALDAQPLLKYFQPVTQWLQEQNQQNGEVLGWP
Protocol: as §3

[7] = tested on: awake hypertensive rat blood pressure; experiment: Blood pressure of awake hypertensive rat, free versus cyclodextrin-encapsulated Evasin; assay type: in vivo; conditions: bolus injection, 0.071 nmol/100 g of body weight, awake hypertensive rats
Text: as §1, with “This example describes the inclusion compound administration effect between the Evasin-5a and hydroxiprolil-[…]-cyclodextrina BPβCD) on the blood pressure of the hypertensive rats. One” for “One”
as §2
Before the drug administration, the rats PBP, MBP and HR were monitored during 60 minutes. After the bolus injection of Evasin in a total volume of 0.2 mL (NaCl 0.9% solution), the resulting hypotensive effect and the effect length were monitored. […]

[8] = target: neutral endopeptidase (recombinant NEP) (Homo sapiens, UniProt P08473); experiment: Fluorometric assay of recombinant NEP inhibition; assay type: biochemical
Sequence of neutral endopeptidase (recombinant NEP) (P08473 whole entry, species assumed): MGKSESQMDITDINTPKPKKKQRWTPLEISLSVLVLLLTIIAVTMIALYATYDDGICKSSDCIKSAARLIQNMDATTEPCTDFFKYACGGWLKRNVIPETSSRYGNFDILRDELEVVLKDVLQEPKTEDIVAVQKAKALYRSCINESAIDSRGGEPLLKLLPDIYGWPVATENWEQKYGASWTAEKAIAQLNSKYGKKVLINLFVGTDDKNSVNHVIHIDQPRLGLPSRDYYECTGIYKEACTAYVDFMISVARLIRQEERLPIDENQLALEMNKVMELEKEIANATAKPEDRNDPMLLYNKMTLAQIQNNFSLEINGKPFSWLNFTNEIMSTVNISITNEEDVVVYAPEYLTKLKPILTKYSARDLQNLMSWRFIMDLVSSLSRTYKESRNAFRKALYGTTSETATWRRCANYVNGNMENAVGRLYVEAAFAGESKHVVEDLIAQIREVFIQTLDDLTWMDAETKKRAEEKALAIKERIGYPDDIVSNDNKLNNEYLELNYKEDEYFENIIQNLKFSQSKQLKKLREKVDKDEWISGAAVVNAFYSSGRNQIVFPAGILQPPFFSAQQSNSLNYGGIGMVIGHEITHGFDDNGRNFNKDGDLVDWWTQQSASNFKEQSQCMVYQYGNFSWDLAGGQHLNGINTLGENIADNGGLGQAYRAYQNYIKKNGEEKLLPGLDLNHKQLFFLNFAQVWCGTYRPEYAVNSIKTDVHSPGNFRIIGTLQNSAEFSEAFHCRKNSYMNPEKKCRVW
Protocol: The fluorometric assays for the recombinant NEP inhibition were conducted using the substrate Abz-RL-EDDnp in a 50 mM Tris-HCl buffer, pH 7.5, at 37° C. […] The Evasins were pre-incubated with the enzyme before the substrate addition.
The inhibition constants (Ki) values were determined by means of the ratio of the apparent inhibition constant (Ki(app)) and the substrate Km (Salvesen and Nagase, 1990). In: Proteolytic enzymes a practical aproach, Beynon and Bond Eds Oxford University Press, England, 87-88).

[9] = cited from earlier work
[10] = tested on: rostro-ventrolateral medulla of freely moving rats; conditions: free (not encapsulated), 25 to 50 ng; cited from earlier work
[11] = recombinant ACE, substrate Mca-Ala-Ser-Asp-Lys-DpaOH, 25° C., pH 6.8, read-out: ECA - Ki, C-terminal
[12] = recombinant ACE, substrate Mca-Ala-Ser-Asp-Lys-DpaOH, 25° C., pH 6.8, read-out: ECA - Ki, N-terminal
[13] = recombinant NEP, substrate Abz-RL-EDDnp, pH 7.5, 37° C., read-out: NEP - Ki

Row | Compound | Bk potentiation(%) [3] [%] | Duration time [3] | hypotensive effect length [4] | reduction in the mean blood pressure (maximum) [4] [mmHg] | Ki [5, 11] [nM] | Ki [6, 12] [nM] | Ki [8, 13] [nM] | Ki [5] [nM] | Ki [6] [nM] | Ki [8] [nM] | further results
1 | C[C@H](CS)C(=O)N1CCC[C@H]1C(=O)O [Captopril] |  |  |  |  |  |  |  |  |  |  | drug absorption time when administered alone [1]: 1 h
2 | C[C@H](NC(=O)[C@H](Cc1c[nH]c2ccccc12)NC(=O)[C@H](CCCCN)NC(=O)[C@@H]1CCC(=O)N1)C(=O)N1CCC[C@H]1C(=O)O [EVASIN-5a, <EKWAP] ([pGlu]KWAP-OH; C-terminus assumed) | 102.5 | 10 | 37 min | −19.17±4.36 | 1280 | 399 | 550000 |  |  |  | time duration of effect after the infusion interruption ([2]; SHR): over 6 hours; decrease of the MAP ([2]; SHR): 28±2.7 mmHg; decrease of the MAP ([2]; TGR (mREN2) L27): 34±0.9 mmHg; time duration of effect after the infusion interruption ([2]; TGRs): 1 h; effect length [7]: 38 min; maximum hypotensive effect, reduction of MAP [7]: 23±4.2 mmHg
3 | CC[C@H](C)[C@H](NC(=O)[C@@H]1CCCN1C(=O)CNC(=O)[C@H](CC(=O)O)NC(=O)[C@@H]1CCC(=O)N1)C(=O)N1CCC[C@H]1C(=O)N1CCC[C@H]1C(=O)O [EVASIN-7a, <EDGPIPP] ([pGlu]DGPIPP-OH; C-terminus assumed) | 41.8 | 120 | more than 100 minutes | 13.00±2.78 | 40000 | 70000 | 492000 |  |  |  | 
4 | CC[C@H](C)[C@H](NC(=O)[C@H](CCC(N)=O)NC(=O)[C@@H]1CCCN1C(=O)[C@H](CCCNC(=N)N)NC(=O)[C@@H]1CCCN1C(=O)[C@H](Cc1c[nH]c2ccccc12)NC(=O)[C@@H]1CCC(=O)N1)C(=O)N1CCC[C@H]1C(=O)N1CCC[C@H]1C(=O)O [EVASIN-9a, <EWPRPQIPP] |  |  | 84 min | −27.0±1.50 | 1 | 100 | 86000 |  |  |  | antihypertensive activity, intravenously ([9]; administered intravenously): has an antihypertensive activity; antihypertensive activity, orally ([9]; given orally): inactive
5 | CC[C@H](C)[C@H](NC(=O)[C@H](CCC(N)=O)NC(=O)[C@@H]1CCCN1C(=O)[C@H](Cc1c[nH]cn1)NC(=O)[C@@H]1CCCN1C(=O)[C@H](Cc1c[nH]c2ccccc12)NC(=O)[C@H](CC(N)=O)NC(=O)[C@@H]1CCC(=O)N1)C(=O)N1CCC[C@H]1C(=O)N1CCC[C@H]1C(=O)O [EVASIN-10c, <ENWPHPQIPP] ([pGlu]NWPHPQIPP-OH; C-terminus assumed) | 195 | 95 | 94 min | −29.5±9.50 |  |  |  | 0.5 | 200 | 253000 | selectivity for the C-terminal site ([5]; C-terminal versus N-terminal site of ACE): 400 times
6 | CC[C@H](C)[C@H](NC(=O)[C@@H]1CCCN1C(=O)[C@@H]1CCCN1C(=O)[C@H](Cc1c[nH]cn1)NC(=O)[C@@H]1CCCN1C(=O)[C@H](C)NC(=O)[C@H](CCCNC(=N)N)NC(=O)CNC(=O)[C@@H]1CCC(=O)N1)C(=O)N1CCC[C@H]1C(=O)N1CCC[C@H]1C(=O)O [EVASIN-11c, <EGRAPHPPIPP] ([pGlu]GRAPHPPIPP-OH; C-terminus assumed) | 67 | 28 |  |  |  |  |  | 40 | 2000 | 589000 | 
7 | CC[C@H](C)[C@H](NC(=O)[C@@H]1CCCN1C(=O)[C@@H]1CCCN1C(=O)CNC(=O)[C@@H]1CCCN1C(=O)[C@@H]1CCCN1C(=O)[C@H](CCCNC(=N)N)NC(=O)CNC(=O)[C@H](Cc1c[nH]c2ccccc12)NC(=O)[C@@H]1CCC(=O)N1)C(=O)N1CCC[C@H]1C(=O)N1CCC[C@H]1C(=O)O [EVASIN-12b, <EWGRPPGPPIPP] ([pGlu]WGRPPGPPIPP-OH; C-terminus assumed) | 340 | 40 |  |  |  |  |  | 150 | 5 | 150000 | 
8 | CC[C@H](C)[C@H](NC(=O)[C@H](CCC(=O)O)NC(=O)[C@@H]1CCCN1C(=O)CNC(=O)[C@@H]1CCCN1C(=O)[C@H](CCCNC(=N)N)NC(=O)[C@@H]1CCCN1C(=O)[C@H](Cc1c[nH]c2ccccc12)NC(=O)CNC(=O)CNC(=O)[C@@H]1CCC(=O)N1)C(=O)N1CCC[C@H]1C(=O)N1CCC[C@H]1C(=O)O [EVASIN-13a, <EGGWPRPGPEIPP] ([pGlu]GGWPRPGPEIPP-OH; C-terminus assumed) | 45 | 30 |  |  |  |  |  | 50 | 50 | 473000 | 
9 | Ang-(1-7) (DRVYIHP; Angiotensin 1-7; UniProt P01019 25-31, looked up) [free Ang-(1-7), angiotensinergic peptide, not encapsulated] |  |  |  |  |  |  |  |  |  |  | duration of the increase [10]: approximately 10 min; increase of blood pressure [10]: 15 mmHg
